Earlier results, collected in patent publication US20020077465A1, “ADAM polynucleotides, polypeptides, and antibodies” (priority 2000, published 2002).
Where a SMILES comes first, the peptide text is derived from it. [ ]: non-standard residue; d: D form. The star is where a group is joined. 4Abz = Nc1ccc(C(=O)O)cc1; NHOH = ON*

Columns and labels:
M24 cells = details: murine metastasis model
[1] = system: human metastatic melanoma (M24 cells)
MMP-9 = MMP-9 (Homo sapiens, UniProt P14780); details: read-out: IC50 against MMP-9
MMP-1 = biological target: T1, MMP-1 (Homo sapiens, UniProt P03956); details: read-out: IC50 against MMP-1
T1 sequence (P03956 100-469): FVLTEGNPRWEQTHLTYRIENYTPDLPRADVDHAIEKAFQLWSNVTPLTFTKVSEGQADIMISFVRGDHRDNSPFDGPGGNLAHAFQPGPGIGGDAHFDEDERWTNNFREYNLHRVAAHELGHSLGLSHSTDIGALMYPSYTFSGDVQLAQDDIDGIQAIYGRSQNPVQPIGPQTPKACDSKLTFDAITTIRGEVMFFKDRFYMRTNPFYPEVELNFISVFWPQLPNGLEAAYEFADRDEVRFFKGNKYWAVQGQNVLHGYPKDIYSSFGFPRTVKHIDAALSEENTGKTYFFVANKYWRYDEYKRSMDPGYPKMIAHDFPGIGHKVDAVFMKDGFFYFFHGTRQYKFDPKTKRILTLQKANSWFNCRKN

MMP-8 = MMP-8 (Homo sapiens, UniProt P22894); details: read-out: IC50 against MMP-8
MMP-3 = MMP-3 (Homo sapiens, UniProt P08254); details: read-out: IC50 against MMP-3
[2] = system: viruses containing the K103N mutation
[3] = system: lamivudine-resistant isolates; details: a substantial proportion of lamivudine-resistant isolates
[4] = system: protease inhibitor-resistant viruses
angiogenesis = details: both in vitro and in vivo

Chain of MMP-9 (P14780 94-707, species assumed): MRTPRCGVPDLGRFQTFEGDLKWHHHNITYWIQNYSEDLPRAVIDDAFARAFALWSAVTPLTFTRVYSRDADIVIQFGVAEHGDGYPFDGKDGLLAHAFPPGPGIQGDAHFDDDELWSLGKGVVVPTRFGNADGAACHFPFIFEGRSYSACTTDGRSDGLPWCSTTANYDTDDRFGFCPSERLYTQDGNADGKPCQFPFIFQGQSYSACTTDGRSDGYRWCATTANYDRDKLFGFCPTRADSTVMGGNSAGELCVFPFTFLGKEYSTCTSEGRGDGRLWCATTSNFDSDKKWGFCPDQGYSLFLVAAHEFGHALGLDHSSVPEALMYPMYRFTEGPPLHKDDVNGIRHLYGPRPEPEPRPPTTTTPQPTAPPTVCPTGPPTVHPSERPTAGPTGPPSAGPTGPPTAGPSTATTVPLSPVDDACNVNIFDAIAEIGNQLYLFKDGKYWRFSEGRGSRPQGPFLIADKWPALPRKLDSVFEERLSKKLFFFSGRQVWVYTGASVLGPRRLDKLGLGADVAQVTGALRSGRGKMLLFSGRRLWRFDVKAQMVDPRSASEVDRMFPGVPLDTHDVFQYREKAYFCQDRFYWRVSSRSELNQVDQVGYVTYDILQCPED
Chain of MMP-8 (P22894 101-467, species assumed): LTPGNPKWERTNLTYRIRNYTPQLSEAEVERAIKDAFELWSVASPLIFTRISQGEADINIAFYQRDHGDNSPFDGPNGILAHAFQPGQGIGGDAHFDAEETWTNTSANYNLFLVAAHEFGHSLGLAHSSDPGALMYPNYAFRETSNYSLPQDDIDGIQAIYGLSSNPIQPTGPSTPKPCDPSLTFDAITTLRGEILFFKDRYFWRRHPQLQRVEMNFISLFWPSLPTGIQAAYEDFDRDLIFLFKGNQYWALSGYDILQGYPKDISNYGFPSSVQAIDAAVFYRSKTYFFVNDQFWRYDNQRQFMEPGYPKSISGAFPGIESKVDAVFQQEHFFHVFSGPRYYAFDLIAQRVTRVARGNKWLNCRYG
Chain of MMP-3 (P08254 100-477, species assumed): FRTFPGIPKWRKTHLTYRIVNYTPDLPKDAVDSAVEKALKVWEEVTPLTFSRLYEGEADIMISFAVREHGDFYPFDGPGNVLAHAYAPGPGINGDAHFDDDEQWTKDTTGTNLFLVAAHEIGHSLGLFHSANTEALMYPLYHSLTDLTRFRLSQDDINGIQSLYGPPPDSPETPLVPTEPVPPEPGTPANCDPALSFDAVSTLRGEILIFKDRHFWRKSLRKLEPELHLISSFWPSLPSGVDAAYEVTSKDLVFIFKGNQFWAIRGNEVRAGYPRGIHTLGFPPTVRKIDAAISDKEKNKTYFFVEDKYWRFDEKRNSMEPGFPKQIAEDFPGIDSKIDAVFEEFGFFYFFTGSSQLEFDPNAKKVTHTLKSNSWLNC

## contortrostatin
M24 cells
  inhibition of lung colonization of M24 cells: inhibits
[1]; laminin
  inhibition of M24 cell adhesion to laminin: not
[1]; type I collagen, vitronectin, fibronectin
  inhibition of M24 cell adhesion to type I collagen, vitronectin, and fibronectin: inhibit

## Nc1nc(=O)n([C@@H]2CS[C@H](CO)O2)cc1F [COVIRACIL, emtricitabine]
HIV; in vitro, relative to lamivudine (3TC)
  greater activity in vitro than lamivudine (3TC): 3- to 10 fold

## CC(C)C[C@@H](NC(=O)[C@@H]1CCCN1C(=O)CNC(=O)c1ccc(N)cc1)C(=O)N[C@H](C)C(=O)NO [MMP inhibitor I] (H-[4Abz]GP[dL][dA]-{NHOH})
MMP-9
  IC50: 30 µM
MMP-1
  IC50: 1 µM
MMP-8
  IC50: 1 µM
MMP-3
  IC50: 150 µM

## C[C@H](Sc1nc(N)cc(Cl)n1)c1cc2ccoc2cn1 [PNU-142721]
HIV; relative to delavirdine
  greater activity than its predecessor delavirdine: 20- to 50 fold
[2]
  activity against viruses containing the K103N mutation / K103N mutants: active against K103N mutants

## Nc1ccn([C@H]2CO[C@@H](CO)S2)c(=O)n1 [dOTC]
[3]
  activity against lamivudine-resistant isolates: retains activity

## CC[C@H]1C(=O)Nc2ccc(F)cc2N1C(=O)OC(C)C [GW-420867X]
HIV; relative to HBY097
  greater activity than HBY097: 25 fold
[2]
  activity against viruses containing the K103N mutation / K103N mutants: active against K103N mutants

## Cc1ccccc1CNC(=O)[C@H]1N(C(=O)[C@@H](O)[C@H](Cc2ccccc2)NC(=O)c2cccc(O)c2C)CSC1(C)C [AG-1776]
[4]
  in vitro activity against protease inhibitor-resistant viruses: in vitro activity

## Nc1nc(=O)n([C@H]2C=C[C@@H](CO)O2)cc1F [D-D4FC]
AZT/3TC-resistant virus
  activity against AZT/3TC-resistant virus: activity against AZT/3TC-resistant virus

B1: METH1 polypeptides: metalloprotease thrombospondin polypeptides encoded by the human METH1 gene (WO99/37660) (protein, UniProt Q9UHI8 253-967, looked up)
A disintegrin and …: FVSSHRYVETMLVADQSMAEFHGSGLKHYLLTLFSVAARLYKHPSIRNSVSLVVVKILVIHDEQKGPEVTSNAALTLRNFCNWQKQHNPPSDRDAEHYDTAILFTRQDLCGSQTCDTLGMADVGTVCDPSRSCSVIEDDGLQAAFTTAHELGHVFNMPHDDAKQCASLNGVNQDSHMMASMLSNLDHSQPWSPCSAYMITSFLDNGHGECLMDKPQNPIQLPGDLPGTSYDANRQCQFTFGEDSKHCPDAASTCSTLWCTGTSGGVLVCQTKHFPWADGTSCGEGKWCINGKCVNKTDRKHFDTPFHGSWGMWGPWGDCSRTCGGGVQYTMRECDNPVPKNGGKYCEGKRVRYRSCNLEDCPDNNGKTFREEQCEAHNEFSKASFGSGPAVEWIPKYAGVSPKDRCKLICQAKGIGYFFVLQPKVVDGTPCSPDSTSVCVQGQCVKAGCDRIIDSKKKFDKCGVCGGNGSTCKKISGSVTSAKPGYHDIITIPTGATNIEVKQRNQRGSRNNGSFLAIKAADGTYILNGDYTLSTLEQDIMYKGVVLRYSGSSAALERIRSFSPLKEPLTIQVLTVGNALRPKIKYTYFVKKKKESFNAIPTFSAWVIEEWGECSKSCELGWQRRLVECRDINGQPASECAKEVKPASTRPCADHPCPQWQLGEWSSCSKTCGKGYKKRSLKCLSHDGGVLSHESCDPLKKPKHFIDFCTMAECS
angiogenesis
  inhibition of angiogenesis: potent inhibitors
